From ChEMBL document CHEMBL1135249, “Probing the overlap of chorismate mutase and prephenate dehydrogenase sites in the escherichia coli T-protein: a dehydrogenase-selective inhibitor” (Bioorg Med Chem Lett, 2002)
pIC50, pKi: −log10 of the molar value.

Experiments:
[1] = Tested for its inhibitory activity against the enzyme chorismate mutase (CM) in Escherichia coli T-protein
[2] = Tested for its inhibitory activity against the enzyme prephenate dehydrogenase (PDH) in Escherichia coli T-protein
[3] = Tested for its inhibitory activity against the enzyme chorismate mutase (CM) in Escherichia coli T-protein; no effect up to 1 mM
[4] = Tested for the inhibition against prephenate dehydrogenase; parameters: species or system Escherichia coli

Row | SMILES | pKi [1] | pKi [2] | Ki [3] | pIC50 [4]
1 | O=C(O)[C@]12C[C@H]3C[C@H](C[C@H](C3)C1)C2 | 3.37 | 3.51 |  | 
2 | O=P(O)(O)C12C[C@H]3C[C@@H](C1)C[C@@H](C2)C3 | 3.70 | 3.85 |  | 
3 | C=C(O[C@@H]1C=C(C(=O)O)CCC1O)C(=O)O (stereo partly specified) | 3.37 | 3.23 |  | 
4 | C=C(O[C@@H]1C=C(C(=O)O)C(O)C(O)[C@H]1O)C(=O)O (stereo partly specified) | 3.39 | 3.96 |  | 
5 | O=C(O)[C@@H]1Cc2cccc3cccc(c23)C[C@H]1C(=O)O (racemic) |  | 3.67 | no effect up to 1 mM | 3.60
